Results on 22 compounds are retold here after PubChem BioAssay (NCI).

Test in all cases: NCI anticancer screen, dose series, 48 h
For assay [1], the system named is A498 renal.
In assay [2] the test system is HCT-15 colon.
Assay [3] relates to T-47D breast.
Assay [4] has as its system SF-268 CNS.
Assay [5] has as its system NCI-H460 lung.
Assay [6] has as its system SF-295 CNS.
Assay [7] deals with KM12 colon.
Assay [8] relates to CCRF-CEM leukemia.
Assay [9] deals with SF-539 CNS.
For assay [10], the system named is HOP-92 NSCLC.

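Values below derive from 48-hour exposures of cells grown in 96-well plates, with endpoints linearly interpolated between the two concentrations bracketing the appropriate inhibition level. TGI marks complete inhibition of growth.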 Where only a bound is given, the exact number is not on record here.

For the compound `COc1ccc(N2C(=O)C3ON(C(C(N)=O)c4ccccc4)C(c4ccc(-c5ccccc5)cc4)C3C2=O)cc1` (stereo not given), the TGI in [1], in assay [2], in assay [3], in assay [4], in assay [5] and in assay [6] was more than 50 µM throughout. The TGI in [7], in assay [8] and in [9] was more than 50 µM in each case.

On to `CC1(C2(C)OC(=O)c3ccccc32)OC(=O)c2ccccc21` (stereo not given), for which the TGI in assay [1], in assay [2], in [3], in [4], in assay [5] and in assay [10] was more than 100 µM in each case. In addition, the TGI in [6], in assay [7] and in assay [9] was more than 100 µM each time.

In the case of `O=C1CCC[C@]2(CCC[C@@H](O)C2)N1`, the TGI in assay [2], in [3], in assay [4], in assay [5], in assay [6] and in assay [7] was more than 100 µM each time. For the same compound, the TGI in assay [8] and in assay [9] was more than 100 µM in each case.

On to `COc1ccc(C2SCC(=O)N2c2ccc(-n3c(-c4ccccc4)nc4ccccc4c3=O)cc2)cc1OC` (stereo not given), for which the TGI in assay [1], in [2], in [3], in assay [4], in assay [5] and in [6] was more than 100 µM each time. For the same compound, the TGI in [7], in [8] and in assay [9] was more than 100 µM each time.

`COc1cc(CCCOC(=O)/C=C/c2ccc(O)c(O)c2)cc(O)c1O`: the TGI was more than 100 µM in assay [1]; more than 100 µM in assay [2]; 74.6 µM in [3]; 84.5 µM in assay [4]; more than 100 µM in assay [5]; more than 100 µM in [6]. The figures for the TGI in assay [7], in assay [8] and in assay [9] were more than 100 µM, more than 100 µM and 90.2 µM, respectively.

Turning to `CCCc1c(OC)c(=O)c2c(OC)cc(OC)c3c4c(OC)cc(OC)c5c(=O)c(OC)c(CCC)c(c1c23)c54`, the TGI was determined as 37.1 µM in assay [1]; 27.9 µM in [2]; 20.6 µM in assay [3]; 41.5 µM in assay [4]; 34.5 µM in assay [5]; 23.4 µM in assay [10]. The TGI in assay [6] came out at 33.1 µM; in [7], 34.1 µM; in assay [9], 30.9 µM.

`Nc1nc(SCCNC(=O)CCc2ccc(O)cc2)nc2c1ncn2C1OC(CO)C(O)C1O` (stereo not given): the TGI in [1], in assay [2], in assay [4], in assay [5], in assay [10] and in assay [6] was more than 203 µM in each case. The TGI in [7], in [8] and in assay [9] was more than 203 µM in each case.

Regarding `COc1ccc(/C=C2\C[C@H]3[C@@H]4CCC5=C[C@@H](N6CCCC6)CC[C@]5(C)[C@H]4CC[C@]3(C)[C@H]2O)cc1`, the TGI in assay [1] was 3.2 µM; in assay [2], 5.77 µM; in assay [3] it was 14.1 µM; in [4] it was 11.6 µM; in assay [5] it was 8.04 µM; in [10], 9.51 µM. In addition, the TGI in assay [6] was 5.52 µM; in assay [7], 8.02 µM; in assay [9] it was 5.71 µM.

On to `Clc1ccc(SCCSCCCCCCCCCCSCCSc2ccc(Cl)cc2)cc1`, for which the TGI in assay [1], in assay [2], in [4], in assay [5], in assay [10] and in assay [6] was more than 100 µM in each case. Besides, the TGI in [7], in assay [8] and in assay [9] was more than 100 µM in each case.

`Nc1c(-c2nc3ccccc3s2)c2ccc([N+](=O)[O-])cc2c(=O)n1-c1cccc(C(=O)O)c1`: the TGI was more than 100 µM in assay [2]; 64.1 µM in assay [3]; more than 100 µM in [4]; more than 100 µM in assay [5]; 72.9 µM in assay [10]; more than 100 µM in assay [7]. In [8], the TGI is 56.8 µM.

Consider `O=c1[nH]c(Nc2cccc(C(F)(F)F)c2)nc2nc[nH]c12`, for which the TGI in [2], in assay [3], in assay [4], in assay [10], in assay [6] and in assay [7] was more than 100 µM throughout. The TGI in assay [8] and in assay [9] was more than 100 µM in each case.

As to `COc1cc2c(c(C)c1O)[C@H]1COc3ccccc3[C@H]1O2`, the TGI is more than 100 µM in assay [1]; 18.5 µM in [2]; 96.1 µM in assay [4]; 31.8 µM in assay [5]; 47.6 µM in [10]; more than 100 µM in assay [6]. Moreover, the results for the TGI in [7], in assay [8] and in assay [9] were more than 100 µM, 56.6 µM and 36.7 µM, respectively.

In the case of `CCCCCCOc1ccc(C(=O)NOCc2ccccc2)cc1`, the TGI in assay [1], in [2], in assay [4], in assay [5], in assay [10] and in assay [6] was more than 100 µM each time. For the same compound, the TGI in [7], in assay [8] and in [9] was more than 100 µM each time.

As to `Cn1c(=O)cc(NCc2ccc(Cl)cc2)[nH]c1=O`, the TGI in [1] is more than 100 µM; in assay [2], more than 100 µM; in [3], more than 100 µM; in [4], 69.1 µM; in assay [5], more than 100 µM; in assay [10] it was 45 µM. Besides, the TGI in assay [6], in assay [7] and in [9] was more than 100 µM each time.

For `CC(N)C(C)Cc1ccccc1` (stereo not given), the TGI in assay [1], in assay [2], in assay [3], in [4], in assay [5] and in [10] was more than 100 µM each time. Besides, the TGI in [6] and in [7] was more than 100 µM in each case.

For the compound `CC1=C2c3c(C)ccc4ccc(C)c(c34)C2(O)C(C)C1=O` (stereo not given), the TGI in [1], in assay [2], in assay [3], in assay [4], in [5] and in [10] was more than 100 µM in each case. The TGI in [7] and in assay [9] was more than 100 µM throughout.

In the case of `O=c1[nH]c(=O)n(C2CC(O)C(CO)O2)cc1OCCCc1ccccc1` (stereo not given), the TGI in [2], in assay [3], in assay [4], in assay [5], in assay [6] and in assay [7] was more than 100 µM in each case. In [8], this compound showed a TGI of more than 100 µM.

`CC1OC(OC2C(O[C@H]3CC[C@@]4(C)[C@@H](CC[C@@H]5[C@@H]4CC[C@]4(C)[C@@H]6[C@H](C[C@@H]54)O[C@]4(CC[C@@H](C)CO4)[C@H]6C)C3)OC(CO)C(OC3OC(CO)C(O)C(OC4OCC(O)C(O)C4O)C3OC3OCC(O)C(O)C3O)C2O)C(O)C(O)C1O` (stereo not given in full): the TGI in assay [1] is 3.78 µM; in assay [2], 2.61 µM; in assay [4] it was 3.37 µM; in assay [5], 2.23 µM; in assay [10], 3.11 µM; in [6], 1.93 µM. Besides, the TGI in assay [7] was 1.92 µM; in [8], 0.499 µM; in [9] it was 1.25 µM.

For the compound `CON(C)C(C#N)=C(C#N)C#N`, the TGI in assay [1], in [2], in assay [3], in assay [4], in assay [5] and in [6] was more than 10 µM throughout. In addition, the TGI in [7], in assay [8] and in [9] was more than 10 µM in each case.

As to `CN1CN(c2ccccc2)C2(CCN(CCCSc3ccccc3NC(=O)/C=C/c3ccccc3)CC2)C1=O`, the TGI in assay [1] is 6.98 µM; in assay [2] it was 26.5 µM; in assay [3] it was more than 59.7 µM; in assay [4] it was more than 46 µM; in [5] it was 14.8 µM; in assay [6], 7.95 µM. The TGI was 17.9 µM in [7], more than 100 µM in assay [8] and 6.45 µM in assay [9].

With `CCCn1c(SCC)c2ccccc2c1-c1nc(F)nc(F)n1`, the TGI in [1], in [2], in [4], in assay [5], in [10] and in assay [6] was more than 100 µM in each case. In addition, the TGI in assay [7], in assay [8] and in assay [9] was more than 100 µM in each case.

Take `CC1(C)N=C(C(N)=O)c2ncn(-c3ccccc3)c2N1`: the TGI in assay [1], in [2], in [3], in assay [4], in assay [5] and in [6] was more than 100 µM each time. In addition, the TGI in assay [7], in [8] and in assay [9] was more than 100 µM each time.
